Results reported in PMC10734500, “Anti-virulence and bactericidal activities of Stattic against Shigella sonnei” (Applied and Environmental Microbiology, 2023).

Key:
[1] = target: T1, GalU (Shigella sonnei, UniProt Q3Z0V1); test: microscale thermophoresis (MST) with purified GalU; supported by malachite green enzyme inhibition ([…] decrease at […]); assay type: binding
T1 construct: intact galU gene in pET28a (His-tagged)

[2] = target: T2, GalU (Klebsiella oxytoca, UniProt A0A163UX09); test: microscale thermophoresis (MST) with expressed GalU homolog; assay type: binding
T2 construct: galUK.o in pET28a
T2 sequence (A0A163UX09 entry or part of it): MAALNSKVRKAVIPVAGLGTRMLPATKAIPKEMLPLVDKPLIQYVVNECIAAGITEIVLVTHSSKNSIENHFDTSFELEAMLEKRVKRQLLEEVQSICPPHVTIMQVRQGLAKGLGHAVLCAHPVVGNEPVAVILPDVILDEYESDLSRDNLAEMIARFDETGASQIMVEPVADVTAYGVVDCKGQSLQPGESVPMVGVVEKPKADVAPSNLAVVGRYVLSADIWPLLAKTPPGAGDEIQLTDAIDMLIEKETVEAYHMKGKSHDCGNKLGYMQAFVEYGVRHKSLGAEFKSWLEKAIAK

T1 sequence (Q3Z0V1 entry or part of it): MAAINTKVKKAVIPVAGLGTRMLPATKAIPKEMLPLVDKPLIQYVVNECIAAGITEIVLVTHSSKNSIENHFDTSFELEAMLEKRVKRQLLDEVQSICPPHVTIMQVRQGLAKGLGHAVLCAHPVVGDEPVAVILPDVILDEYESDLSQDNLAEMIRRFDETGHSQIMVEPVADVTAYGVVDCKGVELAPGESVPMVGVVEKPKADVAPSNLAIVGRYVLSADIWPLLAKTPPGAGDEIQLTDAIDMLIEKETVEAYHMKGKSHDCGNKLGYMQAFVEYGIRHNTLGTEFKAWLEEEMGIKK

O=[N+]([O-])c1ccc2c(c1)S(=O)(=O)C=C2 [Stattic]
Kd [1]: 20 ± 0.35 µM | Kd [2]: 50 ± 0.25 µM
